Measured values published in patent publication US8946142B2, “Beta-arrestin effectors and compositions and methods of use thereof” (Trevena, Inc., priority 2012, dated 2015).
Where a SMILES comes first, the peptide text is derived from it. [ ]: non-standard residue; d: D form. Ac6c = NC1(C(=O)O)CCCCC1; Aib = CC(C)(N)C(=O)O; Sar = CNCC(=O)O

Columns and labels:
Assay type in all cases: cell-based
human AT1R [1] = molecular target: T1, human AT1R (Homo sapiens, UniProt P30556); assay: beta-arrestin2 recruitment assay (PathHunter), human AT1R; settings: for Emax: 1 h, read-out: Span (relative to hAngII)
T1 sequence (P30556 1-359): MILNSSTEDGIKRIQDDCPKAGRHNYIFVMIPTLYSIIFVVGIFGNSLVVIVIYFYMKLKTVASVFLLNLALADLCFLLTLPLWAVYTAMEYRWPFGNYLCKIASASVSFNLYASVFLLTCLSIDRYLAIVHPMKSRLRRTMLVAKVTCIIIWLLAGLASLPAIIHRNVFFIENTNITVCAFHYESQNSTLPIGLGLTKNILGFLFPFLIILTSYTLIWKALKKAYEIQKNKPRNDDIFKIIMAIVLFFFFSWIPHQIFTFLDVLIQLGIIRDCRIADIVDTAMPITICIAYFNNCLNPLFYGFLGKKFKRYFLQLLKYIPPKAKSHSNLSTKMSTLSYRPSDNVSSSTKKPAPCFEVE
Method: (§1) The proximal event in β-arrestin function mediated by GPCRs is recruitment to receptors following ligand binding and receptor phosphorylation by GRK's. Thus, the measure of β-arrestin recruitment was used to determine ligand efficacy for β-arrestin function.
(§2) B-arrestin-2 recruitment to the human and rat angiotensin 2 type 1 receptor (human AT1R and rat AT1aR, respectively) was measured with the PathHunter™ μl-arrestin assay (DiscoveRx Corporation, Fremont Calif.). Cells, plasmid(s), and detection reagent(s) were purchased from DiscoveRx, and assays were performed per manufacturer's instructions. Human AT1R and rat AT1aR were cloned into the pCMV-ProLink vector, verified by sequencing, and transfected into PathHunter β-arrestin HEK293 cells. Stably transfected clonal cell lines were selected with Hygromycin and G418. These clonal cell lines were used for all experiments.
(§3) For assays, 4,000-8,000 cells were seeded per well in 384-well microplates “HiBase” small-volume plate in volumes of 20 uL and grown overnight in the incubator (37° C., 5% CO2, saturated humidity). Peptides were dissolved in DMSO to a concentration of 10 mM. Peptides were then further diluted in assay buffer (Hank's balanced salt solution with 20 mM HEPES) to add peptide to the cells to reach final concentrations ranging from 100 μM to 1 pM. Cells were then incubated for 60 minutes at 37° C. in 5% CO2, followed by addition of 2 μL of PathHunter Detection Reagent to each well. The microplates were then incubated at room temperature for 60 minutes, and then luminescence was measured using a PHERAstar Plus microplate reader from BMG Labtech. B-arrestin-2 recruitment to receptors was measured as relative luminescence intensity expressed in arbitrary units.

human AT1R [2] = molecular target: T1, human AT1R; assay: IP1 accumulation assay (IP1 G-protein assay), human AT1R; settings: for Emax: read-out: Span (relative to hAngII)
Method: (§4) A secondary measure of G protein coupling efficacy was also performed. IP3 is generated by activation of phospholipase C by Gα-q. IP3 is degraded to IP1, which can be forced to accumulate in cells by blocking degradation with lithium chloride. Thus we measured accumulation of IP1 to determine ligand efficacy for G protein activation.
(§5) IP1 accumulation generated by human and rat angiotensin 2 type 1 receptor (human AT1R and rat AT1aR, respectively) was measured with IP-One Tb kits purchased from Cisbio and used per the manufacturer's instructions. Clonal stably transfected cell lines expressing human AT1TR or rat AT1aR were used for all experiments.
(§6) For assays, 4,000-8,000 cells were seeded per well in 384-well small-volume microplates “HiBase” small-volume plate in volumes of 20 uL and allowed to grow overnight at 37° C. in 5% CO2. Cell growth media was then replaced with stimulation buffer supplied by Cisbio containing 50 mM lithium chloride. […] For agonist detection, peptides were then further diluted in stimulation buffer to add peptide to the cells to reach final concentrations ranging from 100 uM to 1 pM. Following addition of peptides, cells were incubated at 37° C. in 5% CO2 for 30 minutes and then lysed with 4 uL of pre-mixed HTRF IP-One reagents diluted per manufacturer's instructions (Cisbio). Microplates were incubated for 60-90 minutes at room temperature and then time-resolved fluorescence intensities were measured using a PHERAstar Plus microplate reader from BMG Labtech. IP1 accumulation was measured as change in ratio of time-resolved fluorescent intensities measured at 665 nm and 620 nm.

rat AT1aR [3] = molecular target: T2, rat AT1aR (Rattus norvegicus, UniProt P25095); assay: beta-arrestin2 recruitment assay (PathHunter), rat AT1aR; settings: for Emax: 1 h, read-out: Span (relative to hAngII)
T2 sequence (P25095 1-359): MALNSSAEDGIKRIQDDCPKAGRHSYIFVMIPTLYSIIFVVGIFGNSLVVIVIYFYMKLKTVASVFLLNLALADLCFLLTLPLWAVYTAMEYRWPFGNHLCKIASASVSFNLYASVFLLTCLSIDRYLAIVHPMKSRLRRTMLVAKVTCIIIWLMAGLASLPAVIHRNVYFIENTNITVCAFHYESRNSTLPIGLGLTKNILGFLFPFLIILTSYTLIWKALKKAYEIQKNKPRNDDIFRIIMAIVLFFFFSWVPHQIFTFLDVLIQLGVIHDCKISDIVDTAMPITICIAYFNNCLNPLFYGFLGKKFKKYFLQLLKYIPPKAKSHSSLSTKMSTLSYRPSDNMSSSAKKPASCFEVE
Method: as §1, §2, §3

rat AT1aR [4] = molecular target: T2, rat AT1aR; assay: IP1 accumulation assay (IP1 G-protein assay), rat AT1aR; settings: for Emax: read-out: Span (relative to hAngII)
Method: as §4, §5, §6

SMILES: CNCC(=O)N[C@@H](CCCCN)C(=O)N[C@H](C(=O)N[C@@H](Cc1ccc(O)cc1)C(=O)NC1(C(=O)N[C@@H](Cc2c[nH]cn2)C(=O)N2CCC[C@H]2C(=O)N[C@@H](C)C(=O)O)CCCCC1)C(C)C [SEQ ID NO: 51, Sar-Lys-Val-Tyr-cyHex-His-Pro-Ala] (H-[Sar]KVY[Ac6c]HPA-OH)
- Emax (human AT1R [1]): < 101%
- EC50 (human AT1R [1]; read-out: EC50): > 3.2 nM
- EC50 (human AT1R [1]; read-out: pEC50 (converted)): > 3.16 nM
- EC50 (human AT1R [2]; read-out: EC50): > 1.3 nM
- Emax (human AT1R [2]): < 103%
- EC50 (human AT1R [2]; read-out: pEC50 (converted)): > 0.631 nM
- Emax (rat AT1aR [3]): < 105%
- EC50 (rat AT1aR [3]; read-out: EC50): > 3.2 nM
- EC50 (rat AT1aR [3]; read-out: pEC50 (converted)): > 3.16 nM

SMILES: CNCC(=O)N[C@@H](CCCNC(=N)N)C(=O)N[C@H](C(=O)N[C@@H](Cc1ccc(O)cc1)C(=O)NC(C)(C)C(=O)N[C@@H](Cc1c[nH]cn1)C(=O)N1CCC[C@H]1C(=O)N[C@H](C(=O)O)C(C)C)C(C)C [SEQ ID NO: 33, Sar-Arg-Val-Tyr-AA01-His-Pro-Val] (H-[Sar]RVY[Aib]HPV-OH)
- Emax (human AT1R [1]): < 101%
- EC50 (human AT1R [1]; read-out: EC50): > 3.2 nM
- EC50 (human AT1R [1]; read-out: pEC50 (converted)): > 3.16 nM
- EC50 (human AT1R [2]; read-out: EC50): > 1.3 nM
- Emax (human AT1R [2]): < 103%
- EC50 (human AT1R [2]; read-out: pEC50 (converted)): > 0.631 nM
- Emax (rat AT1aR [3]): < 105%
- EC50 (rat AT1aR [3]; read-out: EC50): > 3.2 nM
- EC50 (rat AT1aR [3]; read-out: pEC50 (converted)): > 3.16 nM

SMILES: CNCC(=O)N[C@@H](CCCNC(=N)N)C(=O)N[C@H](C(=O)N[C@@H](Cc1ccc(O)cc1)C(=O)NC1(C(=O)N[C@@H](Cc2c[nH]cn2)C(=O)N2CCC[C@H]2C(=O)N[C@@H](CCCNC(=N)N)C(=O)O)CCCCC1)C(C)C [SEQ ID NO: 42, Sar-Arg-Val-Tyr-cyHex-His-Pro-Arg] (H-[Sar]RVY[Ac6c]HPR-OH)
- Emax (human AT1R [1]): < 101%
- EC50 (human AT1R [1]; read-out: EC50): > 3.2 nM
- EC50 (human AT1R [1]; read-out: pEC50 (converted)): > 3.16 nM
- EC50 (human AT1R [2]; read-out: EC50): > 1.3 nM
- Emax (human AT1R [2]): < 103%
- EC50 (human AT1R [2]; read-out: pEC50 (converted)): > 0.631 nM
- Emax (rat AT1aR [3]): < 105%
- EC50 (rat AT1aR [3]; read-out: EC50): > 3.2 nM
- EC50 (rat AT1aR [3]; read-out: pEC50 (converted)): > 3.16 nM

SMILES: CNCC(=O)N[C@@H](CCCNC(=N)N)C(=O)N[C@H](C(=O)N[C@@H](Cc1ccc(O)cc1)C(=O)NC1(C(=O)N[C@@H](Cc2c[nH]cn2)C(=O)N2CCC[C@H]2C(=O)N[C@@H](CC(=O)O)C(=O)O)CCCCC1)C(C)C [SEQ ID NO: 44, Sar-Arg-Val-Tyr-cyHex-His-Pro-Asp] (H-[Sar]RVY[Ac6c]HPD-OH)
- Emax (human AT1R [1]): < 101%
- EC50 (human AT1R [1]; read-out: EC50): > 3.2 nM
- EC50 (human AT1R [1]; read-out: pEC50 (converted)): > 3.16 nM
- EC50 (rat AT1aR [4]; read-out: EC50): > 0.6 nM
- Emax (rat AT1aR [4]): < 104%
- EC50 (rat AT1aR [4]; read-out: pEC50 (converted)): > 0.631 nM
- Emax (rat AT1aR [3]): < 105%
- EC50 (rat AT1aR [3]; read-out: EC50): > 3.2 nM
- EC50 (rat AT1aR [3]; read-out: pEC50 (converted)): > 3.16 nM

SMILES: CNCC(=O)N[C@@H](CCCNC(=N)N)C(=O)N[C@H](C(=O)N[C@@H](Cc1ccc(O)cc1)C(=O)NC1(C(=O)N[C@@H](Cc2c[nH]cn2)C(=O)N2CCC[C@H]2C(=O)N[C@@H](Cc2c[nH]cn2)C(=O)O)CCCCC1)C(C)C [SEQ ID NO: 37, Sar-Arg-Val-Tyr-cyHex-His-Pro-His] (H-[Sar]RVY[Ac6c]HPH-OH)
- Emax (human AT1R [1]): < 101%
- EC50 (human AT1R [1]; read-out: EC50): > 3.2 nM
- EC50 (human AT1R [1]; read-out: pEC50 (converted)): > 3.16 nM
- EC50 (rat AT1aR [4]; read-out: EC50): > 0.6 nM
- Emax (rat AT1aR [4]): < 104%
- EC50 (rat AT1aR [4]; read-out: pEC50 (converted)): > 0.631 nM
- Emax (rat AT1aR [3]): < 105%
- EC50 (rat AT1aR [3]; read-out: EC50): > 3.2 nM
- EC50 (rat AT1aR [3]; read-out: pEC50 (converted)): > 3.16 nM

SMILES: CC[C@H](C)[C@H](NC(=O)[C@@H]1CCCN1C(=O)[C@H](Cc1c[nH]cn1)NC(=O)[C@@H]1CCCN1C(=O)[C@H](Cc1ccc(O)cc1)NC(=O)[C@@H](NC(=O)[C@H](CCCNC(=N)N)NC(=O)CNC)C(C)C)C(=O)O [SEQ ID NO: 4, Sar-Arg-Val-Tyr-Pro-His-Pro-Ile] (H-[Sar]RVYPHPI-OH; N-terminus and C-terminus assumed)
- Emax (human AT1R [1]): < 101%
- Emax (human AT1R [2]): < 103%
- Emax (rat AT1aR [3]): < 105%

SMILES: CNCC(=O)N[C@@H](CCCNC(=N)N)C(=O)N[C@H](C(=O)N[C@@H](Cc1ccc(O)cc1)C(=O)N1CCC[C@H]1C(=O)N[C@@H](Cc1c[nH]cn1)C(=O)N1CCC[C@H]1C(=O)N[C@@H](CO)C(=O)O)C(C)C [SEQ ID NO: 8, Sar-Arg-Val-Tyr-Pro-His-Pro-Ser] (H-[Sar]RVYPHPS-OH; N-terminus and C-terminus assumed)
- Emax (human AT1R [1]): < 101%
- Emax (human AT1R [2]): < 103%
- Emax (rat AT1aR [3]): < 105%
